Patent US9040528B2, “Chemical compounds 542” (AstraZeneca AB, priority 2008, dated 2015)

Biological target: Escherichia coli DNA gyrase A/B tetramer (Escherichia coli (strain K12), UniProt P0AES4+P0AES6)
Assay: DNA gyrase supercoiling activity fluorescence polarisation assay
Type: biochemical
Conditions: 5 nM enzyme, relaxed plasmid, 0.3 mM ATP, ambient temperature; read-out: E. coli DNA gyrase supercoiling IC50
Procedure: DNA Gyrase Supercoiling Activity Fluorescence Polarisation Assay
The supercoiling reactions may be quenched by the addition of 10 microliters/well of 40 nM oligodeoxynucleotide probe in 3× triplex-forming buffer consisting of 150 mM NaCl, and 150 mM sodium acetate at pH 3.5. The oligodeoxynucleotide probe may be 5′-BODIPY-FL-labeled […]. After 60 minutes, the fluorescence anisotropy of the BODIPY-FL may be measured in a Tecan Ultra plate reader, using 485 nm excitation and 535 nm emission filters equipped with polarizers. The IC50 may be determined by nonlinear regression using two control reactions. The first contains no test compound but 0.8% DMSO (100% activity) while the second control reaction contains 5 μM Ciprofloxacin and 0.8% DMSO (0% activity).

Compound	IC50 [nM]
Cc1nsc2c(F)c3c(cc12)CC1(C(=O)NC(=O)NC1=O)[C@H]1[C@H](C)O[C@H](C)CN31 (relative stereo) [Example 75, (2R,4S,4aS)-rel-11-fluoro-2,4,8-trimethyl-1,2,4,4a-tetrahydro-2′H,6H-spiro[1,4-oxazino[4,3-a][1,2]thiazolo[4,5-g]quinoline-5,5′-pyrimidine]-2′,4′,6′(1′H,3′H)-trione]	200
CNC(=O)c1noc2c(Cl)c3c(nc12)CC1(C(=O)NC(=O)NC1=O)[C@H]1[C@H](C)O[C@H](C)CN31 (relative stereo) [Example 125, (2R,4S,4aS)-rel-11-Chloro-N,2,4-trimethyl-2′,4′,6′-trioxo-2,2′,3′,4,4a,4′,6,6′-octahydro-1H,1′H-spiro[isoxazolo[4,5-g][1,4]oxazino[4,3-a][1,5]naphthyridine-5,5′-pyrimidine]-8-carboxamide]	700
C[C@@H]1CN2c3c(cc4c(C(=O)NC(C)(C)C)noc4c3F)CC3(C(=O)NC(=O)NC3=O)[C@H]2[C@H](C)O1 (relative stereo) [Example 144, (2R,4S,4aS)-rel-N-tert-butyl-11-fluoro-2,4-dimethyl-2′,4′,6′-trioxo-2,2′,3′,4,4a,4′,6,6′-octahydro-1H,1′H-spiro[isoxazolo[4,5-g][1,4]oxazino[4,3-a]quinoline-5,5′-pyrimidine]-8-carboxamide]	2900
C[C@@H]1CN2c3c(cc4c(-c5ccccc5)noc4c3F)CC3(C(=O)NC(=O)NC3=O)[C@H]2[C@H](C)O1 (relative stereo) [Example 3, (2R,4S,4aS)-rel-11-fluoro-2,4-dimethyl-8-phenyl-1,2,4,4a-tetrahydro-2′H,6H-spiro[isoxazolo[4,5-g][1,4]oxazino[4,3-a]quinoline-5,5′-pyrimidine]-2′,4′,6′(1′H,3′H)-trione]	400
C[C@@H]1CN2c3c(cc4c(NCc5cccnc5)noc4c3F)CC3(C(=O)NC(=O)NC3=O)[C@H]2[C@H](C)O1 (relative stereo) [Example 15, (2R,4S,4aS)-rel-11-fluoro-2,4-dimethyl-8-[(pyridin-3-ylmethyl)amino]-1,2,4,4a-tetrahydro-2′H,6H-spiro[1,4-oxazino[4,3-a][1,2]oxazolo[4,5-g]quinoline-5,5′-pyrimidine]-2′,4′,6′(1′H,3′H)-trione]	1000
C[C@@H]1CN2c3c(cc4c(-n5cncn5)noc4c3F)CC3(C(=O)NC(=O)NC3=O)[C@@H]2[C@@H](C)O1 [Example 53(b), (2R,4R,4aR)-11-fluoro-2,4-dimethyl-8-(1H-1,2,4-triazol-1-yl)-2,4,4a,6-tetrahydro-1H,1′H-spiro[isoxazolo[4,5-g][1,4]oxazino[4,3-a]quinoline-5,5′-pyrimidine]-2′,4′,6′(3′H)-trione]	20000
CCCNc1noc2c(F)c3c(cc12)CC1(C(=O)NC(=O)NC1=O)[C@H]1[C@H](C)O[C@H](C)CN31 (relative stereo) [Example 31, (2R,4S,4aS)-rel-11-fluoro-2,4-dimethyl-8-(propylamino)-1,2,4,4a-tetrahydro-2′H,6H-spiro[1,4-oxazino[4,3-a][1,2]oxazolo[4,5-g]quinoline-5,5′-pyrimidine]-2′,4′,6′(1′H,3′H)-trione]	2200
C[C@@H]1CN2c3c(cc4c(-c5ccnnc5)noc4c3Cl)CC3(C(=O)NC(=O)NC3=O)[C@H]2[C@H](C)O1 (relative stereo) [Example 45, (2R,4S,4aS)-rel-11-chloro-2,4-dimethyl-8-(pyridazin-4-yl)-1,2,4,4a-tetrahydro-2′H,6H-spiro[1,4-oxazino[4,3-a][1,2]oxazolo[4,5-g]quinoline-5,5′-pyrimidine]-2′,4′,6′(1′H,3′H)-trione]	1600
C[C@@H]1CN2c3c(cc4c(C(=O)NCc5ccncc5)noc4c3F)CC3(C(=O)NC(=O)NC3=O)[C@H]2[C@H](C)O1 (relative stereo) [Example 155, (2R,4S,4aS)-rel-11-fluoro-2,4-dimethyl-2′,4′,6′-trioxo-N-(pyridin-4-ylmethyl)-2,2′,3′,4,4a,4′,6,6′-octahydro-1H,1′H-spiro[isoxazolo[4,5-g][1,4]oxazino[4,3-a]quinoline-5,5′-pyrimidine]-8-carboxamide]	1200
C[C@@H]1CN2c3c(cc4c(-c5cnccn5)noc4c3Cl)CC3(C(=O)NC(=O)NC3=O)[C@H]2[C@H](C)O1 (racemic) [Example 120, (2R,4 S,4 aS)-rel-11-chloro-2,4-dimethyl-8-(pyrazin-2-yl)-2,4,4a,6-tetrahydro-1H,1′H-spiro[isoxazolo[4,5-g][1,4]oxazino[4,3-a]quinoline-5,5′-pyrimidine]-2′,4′,6′(3′H)-trione]	200
C[C@@H]1CN2c3c(cc4c(-c5ccncn5)noc4c3F)CC3(C(=O)NC(=O)NC3=O)[C@H]2[C@H](C)O1 [Example 74(b), (2R,4S,4aS)-11-fluoro-2,4-dimethyl-8-(pyrimidin-4-yl)-2,4,4a,6-tetrahydro-1H,1′H-spiro[isoxazolo[4,5-g][1,4]oxazino[4,3-a]quinoline-5,5′-pyrimidine]-2′,4′,6′(3′H)-trione]	300
Cc1noc2c(F)c3c(cc12)CC1(C(=O)NC(=O)NC1=O)[C@H]1[C@H](C)O[C@H](C)CN31 [Example 2(b), (2R,4S,4aS)-11-fluoro-2,4,8-trimethyl-2,4,4a,6-tetrahydro-1H,1′H-spiro[isoxazolo[4,5-g][1,4]oxazino[4,3-a]quinoline-5,5′-pyrimidine]-2′,4′,6′(3′H)-trione]	300
C[C@@H]1CN2c3c(cc4c(-c5ccnc(O)n5)noc4c3F)CC3(C(=O)NC(=O)NC3=O)[C@H]2[C@H](C)O1 [Example 175, (2R,4S,4aS)-11-fluoro-8-(2-hydroxypyrimidin-4-yl)-2,4-dimethyl-1,2,4,4a-tetrahydro-2′H,6H-spiro[isoxazolo[4,5-g][1,4]oxazino[4,3-a]quinoline-5,5′-pyrimidine]-2′,4′,6′(1′H,3′H)-trione]	900
C[C@H]1CN2c3c(nc4c(-c5nccs5)noc4c3Cl)CC3(C(=O)NC(=O)NC3=O)[C@@H]2[C@@H](C)O1 [Example 111(a), (2S,4R,4aR)-11-chloro-2,4-dimethyl-8-(thiazol-2-yl)-2,4,4a,6-tetrahydro-1H,1′H-spiro[isoxazolo[4,5-g][1,4]oxazino[4,3-a][1,5]naphthyridine-5,5′-pyrimidine]-2′,4′,6′(3′H)-trione]	83000
Cc1nc(-c2noc3c(F)c4c(cc23)CC2(C(=O)NC(=O)NC2=O)[C@H]2[C@H](C)O[C@H](C)CN42)co1 (relative stereo) [Example 65, (2R,4S,4aS)-rel-11-fluoro-2,4-dimethyl-8-(2-methyl-1,3-oxazol-4-yl)-1,2,4,4a-tetrahydro-2′H,6H-spiro[1,4-oxazino[4,3-a][1,2]oxazolo[4,5-g]quinoline-5,5′-pyrimidine]-2′,4′,6′(1′H,3′H)-trione]	1100
Cc1noc2c(Cl)c3c(cc12)CC1(C(=O)NC(=O)NC1=O)[C@H]1[C@H](C)O[C@H](C)CN31 (relative stereo) [Example 7, (2R,4S,4aS)-rel-11-chloro-2,4,8-trimethyl-1,2,4,4a-tetrahydro-2′H,6H-spiro[1,4-oxazino[4,3-a][1,2]oxazolo[4,5-g]quinoline-5,5′-pyrimidine]-2′,4′,6′(1′H,3′H)-trione]	400
C[C@@H]1CN2c3c(nc4c(-c5ccncc5)noc4c3Cl)CC3(C(=O)NC(=O)NC3=O)[C@H]2[C@H](C)O1 (relative stereo) [Example 108, (2R,4S,4aS)-rel-11-chloro-2,4-dimethyl-8-(pyridyin-4-yl)-2,4,4a,6-tetrahydro-1H,1′H-spiro[isoxazolo[4,5-g][1,4]oxazino[4,3-a][1,5]naphthyridine-5,5′-pyrimidine]-2′,4′,6′(3′H)-trione]	800
CC(=O)NC1CN(C(=O)c2noc3c(F)c4c(cc23)CC2(C(=O)NC(=O)NC2=O)[C@H]2[C@H](C)O[C@H](C)CN42)C1 (relative stereo) [Example 160, N-(1-((2R,4S,4aS)-rel-11-fluoro-2,4-dimethyl-2′,4′,6′-trioxo-2,2′,3′,4,4a,4′,6,6′-octahydro-1H,1′H-spiro[isoxazolo[4,5-g][1,4]oxazino[4,3-a]quinoline-5,5′-pyrimidine]-8-ylcarbonyl)azetidin-3-yl)acetamide]	1000
CC(C)NC(=O)c1noc2c(F)c3c(cc12)CC1(C(=O)NC(=O)NC1=O)[C@H]1[C@H](C)O[C@H](C)CN31 [Example 147(a), (2R,4S,4aS)-11-fluoro-N-isopropyl-2,4-dimethyl-2′,4′,6′-trioxo-2,2′,3′,4,4a,4′,6,6′-octahydro-1H,1′H-spiro[isoxazolo[4,5-g][1,4]oxazino[4,3-a]quinoline-5,5′-pyrimidine]-8-carboxamide]	900
C[C@@H]1CN2c3c(cc4c(NCc5nccs5)noc4c3F)CC3(C(=O)NC(=O)NC3=O)[C@H]2[C@H](C)O1 (relative stereo) [Example 10, (2R,4S,4aS)-rel-11-fluoro-2,4-dimethyl-8-[(1,3-thiazol-2-ylmethyl)amino]-1,2,4,4a-tetrahydro-2′H,6H-spiro[1,4-oxazino[4,3-a][1,2]oxazolo[4,5-g]quinoline-5,5′-pyrimidine]-2′,4′,6′(1′H,3′H)-trione]	1900
C[C@@H]1CN2c3c(cc4c(-n5cc(I)cn5)noc4c3F)CC3(C(=O)NC(=O)NC3=O)[C@H]2[C@H](C)O1 (racemic) [Example 36, (2R,4S,4 aS)-rel-11-fluoro-8-(4-iodo-1H-pyrazol-1-yl)-2,4-dimethyl-1,2,4,4a-tetrahydro-2′H,6H-spiro[1,4-oxazino[4,3-a][1,2]oxazolo[4,5-g]quinoline-5,5′-pyrimidine]-2′,4′,6′(1′H,3′H)-trione]	2100
